{"source": "patent US20260174677A1", "about": "“METHODS OF TREATING INSULIN RESISTANCE AND ASSOCIATED DISORDERS” (The University of Melboune, priority 2022, published 2026)", "assay_type_in_all_cases": "in vivo, mouse", "key": {"[1]": {"experiment": "Intranasal PZ6005 in obese mice: I.P. GTT, ITT and fasting glucose", "experimental": "(§1) Metabolic measurements were undertaken in the Melbourne Mouse Metabolic Phenotyping Platform (The University of Melbourne, Australia). Glucose tolerance tests were performed on 6 h fasted conscious mice respectively by injecting D-glucose (2 mg/g of lean body mass and 1 mg/g lean mass for db/db and HFHS+STZ mice) into the peritoneal cavity and measuring glucose in tail blood immediately before and at 15, 30, 45, 60, 90 and 120 min after injection using an Accu-Check glucometer (Roche, Germany). The areas under glucose excursion curves were determined and expressed as mmol/1×min. Fasted (12 h fast) plasma insulin or glucose levels were determined using a Rat/Mouse Insulin ELISA (EZRMI-13K, Merck Millipore, CA) or an Accu-Check glucometer respectively. The HOMA-IR was calculated using the equation [(glucose×insulin)/405]. Adiposity was measured using TD-NMR minispec (Bruker Optics Inc., Billerica, MA).\n(§2) Conscious mice were restrained by scruffing and inverted parallel to the floor with the chin at ˜180-degree angle with the neck. Using a 10 μL tip, a pipettor was loaded with 5 μl of vehicle (ddH2O) or fluorosamine (1 mg/animal in 20 μl or 5 mg/animal in 20 μl). The tip of the filled pipettor was placed near the left nostril at a 45-degree angle, and the drug was ejected to form a small 5 μl droplet at tip for the mouse to inhale. Immediately after the mouse inhaled the first droplet the remaining solution was ejected to form another small droplet for the mouse to inhale through the same nostril. The mouse was held in this position for 15 seconds before the procedure was repeated in the right nostril. The mouse was returned to the cage for 2 minutes and the process was repeated so that each mouse received four droplets of 5 μl each, delivering a total of 20 μl of solution. All drugs were administered delivered approximately 1 h before lights off […].\nObese mice intranasally receiving either vehicle or PZ6005 (1 or 5 mg/animal/day) were subjected to I.P. GTT after 6 hrs fasting period and I.P. insulin tolerance test (ITT) after 4 hrs fasting period."}, "[2]": {"experiment": "Intranasal PZ6005 in diet-induced obese mice: food intake and energy expenditure", "details": "I.N. 1 or 5 mg/animal/day, Day 8-Day 11 of treatment, diet-induced obesity", "experimental": "Mice were acclimated for 24 h and then monitored for 48 h in an environmentally controlled Promethion Metabolic Screening System (Sable Systems International, NV) fitted with indirect open circuit calorimetry, food consumption and activity monitors to measure activity, caloric intake and energy expenditure. Respiratory quotients were calculated as the ratio of CO2 production over O2 consumption respiratory exchange ratio and energy expenditure was calculated using the Weir equation (Kcal h-1=60×(0.003941×VO2+0.001106×VCO2). To account for difference in body mass/composition energy expenditure was analysed and adjusted using ANCOVA using scripts available at the National Mouse Metabolic Phenotyping Centers (MMPC, Nashville, TN, USA) Energy Expenditure Analysis Page (https://www.mmpc.org/shared/regression.aspx).\nConscious mice were restrained by scruffing and inverted parallel to the floor with the chin at ˜180-degree angle with the neck. Using a 10 μL tip, a pipettor was loaded with 5 μl of vehicle (ddH2O) or fluorosamine (1 mg/animal in 20 μl or 5 mg/animal in 20 μl). The tip of the filled pipettor was placed near the left nostril at a 45-degree angle, and the drug was ejected to form a small 5 μl droplet at tip for the mouse to inhale. […]"}, "[3]": {"experiment": "Intranasal PZ6005 in diet-induced obese mice: body weight, tissue mass and fat mass", "experimental": "as §1, §2\nChanges in body weight of 12-week-HFHS-diet-fed obese mice during 14 days of intranasal administration of either vehicle or PZ6005 (1 or 5 mg/animal/day). Intranasal PZ6005 treatment induce weight loss in a dose-dependent manner, as assessed by significant differences in weight changes across groups. […] At the end of the experiment, mice in the highest dose of PZ6005 treatment had lost […] and those in the 1 mg treatment had lost […], whereas control littermates maintained at 3.57±1.28% of body weight (FIG. 10a).\nTo determine the influence of intranasal PZ6005-mediated attenuated neurofibrosis on tissue-specific adiposity and body composition, peripheral tissues and fat mass of the mice were weighed following the 14-day administration. […] Moreover, the reduction in overall fat mass depended upon the doses of PZ6005."}, "[4]": {"details": "I.N. 1 mg/animal/day, 14 days, obese mice"}, "[5]": {"details": "I.N. highest dose (5 mg/animal/day), 14 days, obese mice"}}, "data": [{"molecule": "CC(=O)NC1C(OC(C)=O)OC(COC(C)=O)[C@@H](F)C1OC(C)=O", "note": "(stereo partly shown) [fluorosamine, per-O-acetylated-4-F-N-acetylglucosamine]", "values": [{"measurement": "glucose clearance rate vs 1 mg treatment group and controls", "setting": "[1]; I.N. 5 mg, after 60 mins of I.P. glucose in GTT and after 0 mins of I.P. insulin", "value": "significantly higher glucose clearance rate"}, {"measurement": "insulin sensitivity (ITT)", "setting": "[1]; I.N. 1 or 5 mg/animal/day, obese mice", "value": "enhanced insulin sensitivity"}, {"measurement": "glucose tolerance (glucose excursion in GTT and ITT)", "setting": "[1]; I.N. 1 or 5 mg/animal/day, obese mice, vs control littermates", "value": "better glucose tolerance than control littermates"}, {"measurement": "fasting (12 hrs) glucose level", "setting": "[1]; both doses of intranasal treatment (1 or 5 mg/animal/day)", "value": "Reduction"}, {"measurement": "energy expenditure", "setting": "[2]", "value": "increases energy expenditure"}, {"measurement": "food intake", "setting": "[2]", "value": "decreases food intake"}, {"measurement": "body weight lost at the end of the experiment", "setting": "[3]; [4]", "value": "16.32±1.41", "unit": "%"}, {"measurement": "mass of epiWAT, BAT and liver", "setting": "[3]; [4]", "value": "decreased"}, {"measurement": "post-treatment fat mass decrease compared to pre-treatment mass", "setting": "[3]; [4]", "value": "12.59±2.29", "unit": "%"}, {"measurement": "day from which weight was robustly decreased", "setting": "[3]; I.N. 1 mg/animal/day, obese mice", "value": 7, "unit": "days"}, {"measurement": "day on which 5 mg treatment began to significantly reduce more weight than 1 mg treatment", "setting": "[3]; I.N. 5 mg vs 1 mg/animal/day, persisted to day 14", "value": 9, "unit": "days"}, {"measurement": "post-treatment fat mass decrease compared to pre-treatment mass", "setting": "[3]; I.N. 5 mg/animal/day, 14 days, obese mice", "value": "23.21±9.27", "unit": "%"}, {"measurement": "day from which weight was robustly decreased", "setting": "[3]; I.N. 5 mg/animal/day, obese mice", "value": 3, "unit": "days"}, {"measurement": "body weight lost at the end of the experiment", "setting": "[3]; [5]", "value": "6.36±0.88", "unit": "%"}, {"measurement": "tissue mass (adipose tissues and liver)", "setting": "[3]; [5]", "value": "remarkedly reduced tissue mass"}, {"measurement": "whole-body metabolic improvements", "setting": "[3]; intranasal, 14 days, diet-induced obese mice, compared with I.C.V. delivery", "value": "recapitulated the whole-body metabolic improvements observed with intracerebroventricular delivery"}]}]}
